Among the data in patent publication US10189843B2, “Fused pyrazole derivative having autotaxin inhibitory activity” (The University of Tokyo, priority 2014, dated 2019) are IC50 values, retold here.

Molecules are shown by their SMILES.

This assay addresses T1, Human autotaxin enzyme (Homo sapiens, UniProt Q13822).
T1 construct: purchased R&D System
Put plainly: Evaluation of autotaxin inhibitor, Method C (18:0 Lyso PC substrate, choline assay, Resorufin fluorescence). In kind it is biochemical. Conditions: Method C (Test Example 3), read-out: Inhibitory activity (enzyme inhibitory activity, IC50). In a few lines:
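Recombinant human autotaxin with compound and 200 μM 18:0 Lyso PC (stock) in Tris-HCl pH 7.5, NaCl, MgCl2, Triton X-100, 2 h RT. Released choline detected via choline oxidase/peroxidase/Amplex-type reagent, 20 min, resorufin fluorescence 531/598 nm; % inhibition vs no-compound and no-enzyme controls, concentration-response curve.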

`CCCCC1CN(CNC(C)=O)C(=O)c2cc(-c3ccc(Cl)cc3)nn21` (stereo not drawn) [Compound I-0151]: the half-maximal inhibitory concentration (IC50) (commonly the concentration at which inhibition is half-maximal) was 10 to 100 nM.
As for `CCCCCC1CN(CC(=O)N(C)CC(=O)O)C(=O)c2cc(-c3ccc(Cl)cc3)nn21` (stereo not drawn) [Compound I-0043], the figure is 10 to 100 nM; as for `C[C@H]1CN(CC(=O)NCCC(=O)O)C(=O)c2cc(-c3ccc(Cl)cc3)nn21` [Compound I-0156], at least 1000 nM; as for `CCCCCC1CN(CC(=O)Nc2ccccc2C(=O)O)C(=O)c2cc(-c3ccc(Cl)cc3)nn21` (stereo not drawn) [Compound I-0042], 100 to 1000 nM.
The figure for `CCCCC1CN(CC(=O)OC)C(=O)c2cc(-c3ccc(Cl)cc3)nn21` (stereo not drawn) [Compound I-0249] is 10 to 100 nM.
As for `CCCC(=O)Nc1cc(Cl)ccc1-c1cc2n(n1)[C@@H](C)CN(Cc1ccc(C#N)cc1)C2=O` [Compound I-0321], the figure is 10 to 100 nM.
Turning to `CCCCC1CN(Cc2ccc(C#N)cc2)C(=O)c2cc(-c3ccc(Cl)cc3NC(=O)NC)nn21` (stereo not drawn) [Compound I-0309], the IC50 fell in the range of 100 to 1000 nM.
As for `CCCCCC1CN(Cc2cccc(C(=O)O)c2)C(=O)c2cc(-c3ccc(Cl)cc3)nn21` (stereo not drawn) [Compound I-0148], the figure is below 10 nM; as for `CCCCC1CN(CC2(c3ccc(OC)cc3)CC2)C(=O)c2cc(-c3ccc(Cl)cc3)nn21` (stereo not drawn) [Compound I-0272], at least 1000 nM.
Take `CCCCCC1CN(CC(=O)N2CCC(=O)CC2)C(=O)c2cc(-c3ccc(Cl)cc3)nn21` (stereo not drawn) [Compound I-0113]: the half-inhibitory concentration (IC50) fell in the range of 10 to 100 nM.
As for `C[C@H]1CN(CC(=O)N(C)CCC#N)C(=O)c2cc(-c3ccc(C#N)cc3NC(=O)CF)nn21` [Compound I-0353], the half-maximal inhibitory concentration (IC50) was below 10 nM.
The figure for `CCCCC1CN(CC2CCOC2)C(=O)c2cc(-c3ccc(Cl)cc3)nn21` (stereo not drawn) [Compound I-0269] is 10 to 100 nM.
The figure for `CCCCC1CN(c2ccc(CCC(=O)O)cc2)C(=O)c2cc(-c3ccc(Cl)cc3)nn21` (stereo not drawn) [Compound I-0287] is at least 1000 nM; for `CCCCC1CN(C2COC2)C(=O)c2cc(-c3ccc(Cl)cc3)nn21` (stereo not drawn) [Compound I-0274] it is 100 to 1000 nM.
The figure for `CCCCC1CN(Cc2ccc(C#N)cc2)C(=O)c2cc(N3CCC(F)(F)CC3)nn21` (stereo not drawn) [Compound I-0302] is 100 to 1000 nM.
Take `CCCCC1CN(CC(=O)N(C)CCC#N)C(=O)c2cc(-c3ccc(Cl)cc3)nn21` (stereo not drawn) [Compound I-0209]: the IC50 lay within 10 to 100 nM.
With `CC(=O)Nc1cc(Cl)ccc1-c1cc2n(n1)[C@@H](C(F)(F)F)CN(Cc1ccc(C#N)cc1)C2=O` [Compound I-0343], the half-inhibitory concentration (IC50) was 10 to 100 nM.
The figure for `CCCCCC1CN(CC(=O)NC(Cc2ccccc2)C(=O)O)C(=O)c2cc(-c3ccc(Cl)cc3)nn21` (stereo not drawn) [Compound I-0055] is below 10 nM.
Take `CCCCCC1CN(CNC(=O)OC(C)(C)C)C(=O)c2cc(-c3ccc(Cl)cc3)nn21` (stereo not drawn) [Compound I-0005]: the IC50 lay within 100 to 1000 nM.
The figure for `CCCCC1CN(CC(=O)NCC2(CO)COC2)C(=O)c2cc(-c3ccc(Cl)cc3)nn21` (stereo not drawn) [Compound I-0237] is 100 to 1000 nM.
Turning to `C[C@H]1CN(CC(=O)N(C)CC(=O)O)C(=O)c2cc(-c3ccc(Cl)cc3)nn21` [Compound I-0155], the IC50 was at least 1000 nM.
The figure for `CCCCC1CN(CC(=O)NCC(C)(C)O)C(=O)c2cc(-c3ccc(Cl)cc3)nn21` (stereo not drawn) [Compound I-0229] is 100 to 1000 nM; for `CCCCC1CN(CC(=O)N2CCC[C@H]2C)C(=O)c2cc(-c3ccc(Cl)cc3)nn21` (stereo partly drawn) [Compound I-0227] it is 100 to 1000 nM.
As for `CCCCCC1CN(Cc2ccccc2CS(=O)(=O)c2ccccc2)C(=O)c2cc(-c3ccc(Cl)cc3)nn21` (stereo not drawn) [Compound I-0144], the half-inhibitory concentration (IC50) was at least 1000 nM.
As for `CCOCC1CN(Cc2ccc(C#N)cc2)C(=O)c2cc(-c3ccc(Cl)cc3)nn21` (stereo not drawn) [Compound I-0178], the figure is 100 to 1000 nM.
For the molecule `C[C@H]1CN(Cc2ccc(C#N)cc2)C(=O)c2cc(-c3ccc(Cl)cc3N)nn21` [Compound I-0320], the IC50 was at least 1000 nM.
The figure for `CCCCC1CN(Cc2cncn2C)C(=O)c2cc(-c3ccc(Cl)cc3)nn21` (stereo not drawn) [Compound I-0258] is 100 to 1000 nM; for `CCCCC1CN(CCn2cccc2)C(=O)c2cc(-c3ccc(Cl)cc3)nn21` (stereo not drawn) [Compound I-0267] it is 100 to 1000 nM; for `CCCCC1CN(CC(=O)NCc2cccc(O)c2)C(=O)c2cc(-c3ccc(Cl)cc3)nn21` (stereo not drawn) [Compound I-0226] it is 100 to 1000 nM.
Regarding `CCCCC1CN(CC2CCCO2)C(=O)c2cc(-c3ccc(Cl)cc3)nn21` (stereo not drawn) [Compound I-0268], the IC50 was 10 to 100 nM.
The figure for `C[C@H]1CN(Cc2ccc(C#N)cc2)C(=O)c2cc(-c3ccc(Cl)cc3NS(C)(=O)=O)nn21` [Compound I-0323] is 100 to 1000 nM.
As for `CCOC(=O)CN1C(=O)c2cc(-c3ccc(Cl)cc3)nn2[C@H]2CCC[C@H]21` [Compound I-0009], the figure is 100 to 1000 nM; as for `CCNc1cc(Cl)ccc1-c1cc2n(n1)[C@@H](C)CN(Cc1ccc(C#N)cc1)C2=O` [Compound I-0328], 100 to 1000 nM; as for `CCCCCC1CN(CC(=O)Nc2ccncc2)C(=O)c2cc(-c3ccc(Cl)cc3)nn21` (stereo not drawn) [Compound I-0084], at least 1000 nM.
The figure for `CCCCCC1CN(CC(=O)N(C)c2ccncc2)C(=O)c2cc(-c3ccc(Cl)cc3)nn21` (stereo not drawn) [Compound I-0085] is at least 1000 nM.
Consider `CCCCC[C@@H]1CN(CC(=O)N2CCC(C(=O)O)CC2)C(=O)c2cc(-c3ccc(Cl)cc3)nn21` [Compound I-0313], for which the half-maximal inhibitory concentration (IC50) was below 10 nM.
As for `CCCCC1CN(Cc2nc3ccccc3o2)C(=O)c2cc(-c3ccc(Cl)cc3)nn21` (stereo not drawn) [Compound I-0261], the figure is 100 to 1000 nM; as for `CCCCCC1CN(CC(=O)NCc2ccc(C(=O)O)cc2)C(=O)c2cc(-c3ccc(Cl)cc3)nn21` (stereo not drawn) [Compound I-0045], 100 to 1000 nM; as for `CCCCCC1CN(Cc2ccc(C#N)cc2)C(=O)c2cc(-c3ccc(Cl)cc3)nn21` (stereo not drawn) [Compound I-0132], 10 to 100 nM.
As for `CCCCCC1CN(CC(=O)Nc2cccc(C(=O)O)c2)C(=O)c2cc(-c3ccc(Cl)cc3)nn21` (stereo not drawn) [Compound I-0049], the figure is 10 to 100 nM.
As for `CCCCCC1CN(CC(=O)N2CCCC(CC(=O)O)C2)C(=O)c2cc(-c3ccc(Cl)cc3)nn21` (stereo not drawn) [Compound I-0053], the figure is 10 to 100 nM; as for `CC(=O)Nc1cc(Cl)c(F)cc1-c1cc2n(n1)[C@@H](C)CN(Cc1ccc(C#N)cc1)C2=O` [Compound I-0330], below 10 nM; as for `CCCCC1CN(c2ccc(CC(=O)O)cc2)C(=O)c2cc(-c3ccc(Cl)cc3)nn21` (stereo not drawn) [Compound I-0286], at least 1000 nM.
As to `CCCCCC1CN(CC(=O)NC2CCC[C@@H]2C(=O)OCC)C(=O)c2cc(-c3ccc(Cl)cc3)nn21` (stereo partly drawn) [Compound I-0051], the IC50 was 100 to 1000 nM.
Turning to `C[C@H]1CN(Cc2cccc(C(=O)N3CCC(O)CC3)c2)C(=O)c2cc(-c3ccc(Cl)cc3)nn21` [Compound I-0167], the IC50 is at least 1000 nM.
The figure for `O=C(O)c1cccc(CN2CC(COCc3ccccc3)n3nc(-c4ccc(Cl)cc4)cc3C2=O)c1` (stereo not drawn) [Compound I-0173] is 100 to 1000 nM; for `CC(=O)NC1=C(c2cc3n(n2)[C@@H](C)CN(Cc2ccc(C#N)cc2)C3=O)C(=O)CC(C(F)(F)F)C1` (stereo partly drawn) [Compound I-0368] it is 10 to 100 nM; for `CCCCCC1CN(CC(=O)NCc2ccccc2)C(=O)c2cc(-c3ccc(Cl)cc3)nn21` (stereo not drawn) [Compound I-0099] it is 100 to 1000 nM.
For `CCCCCC1CN(CC(=O)N2CCCC2CO)C(=O)c2cc(-c3ccc(Cl)cc3)nn21` (stereo not drawn) [Compound I-0040], the concentration for half-maximal inhibition (IC50) fell in the range of 100 to 1000 nM.
As to `CCCCCC1CN(CC(=O)Nc2cccc(CC(=O)O)c2)C(=O)c2cc(-c3ccc(Cl)cc3)nn21` (stereo not drawn) [Compound I-0056], the IC50 lay within 10 to 100 nM.
As for `CCCCC1CN(CC(=O)NC(C#N)Cc2ccccc2)C(=O)c2cc(-c3ccc(Cl)cc3)nn21` (stereo not drawn) [Compound I-0331], the figure is 100 to 1000 nM.
The figure for `CCCCC1CN(CC(=O)OC(C)(C)C)C(=O)c2cc(-c3ccc(Cl)cc3)nn21` (stereo not drawn) [Compound I-0283] is 100 to 1000 nM.
Consider `CCCCCC1CN(CC(=O)N2CCC[C@H](C(=O)O)C2)C(=O)c2cc(-c3ccc(Cl)cc3)nn21` (stereo partly drawn) [Compound I-0070], for which the concentration for half-maximal inhibition (IC50) lay in the range of 10 to 100 nM.
The figure for `CCCCCC1CN(Cc2ccccc2OCCCN(C)C)C(=O)c2cc(-c3ccc(Cl)cc3)nn21` (stereo not drawn) [Compound I-0138] is 100 to 1000 nM; for `O=C(O)C1CN(C(=O)CN2C(=O)c3cc(-c4ccc(Cl)cc4)nn3C3COCC32)C1` (stereo not drawn) [Compound I-0029] it is at least 1000 nM; for `CCCCCC1CN(CC(=O)NCCCC)C(=O)c2cc(-c3ccc(Cl)cc3)nn21` (stereo not drawn) [Compound I-0088] it is 100 to 1000 nM.
The figure for `CCCCC1CN(CC(=O)N2CCCC[C@@H]2C)C(=O)c2cc(-c3ccc(Cl)cc3)nn21` (stereo partly drawn) [Compound I-0247] is 10 to 100 nM.
As for `CCCCC1CN(CC(=O)N2CCCC(C(N)=O)C2)C(=O)c2cc(-c3ccc(Cl)cc3)nn21` (stereo not drawn) [Compound I-0210], the figure is 10 to 100 nM; as for `CC(C)OCC1CNC(=O)c2cc(-c3ccc(Cl)cc3)nn21` (stereo not drawn) [Compound I-0199], at least 1000 nM; as for `CCCCCC1CN(CCO)C(=O)c2cc(-c3ccc(Cl)cc3)nn21` (stereo not drawn) [Compound I-0006], 100 to 1000 nM.
For `CCCCCC1CN(CC(=O)N2CCC[C@H](C)C2)C(=O)c2cc(-c3ccc(Cl)cc3)nn21` (stereo partly drawn) [Compound I-0080], the IC50 is 10 to 100 nM.
The figure for `CCCCC1CN(CC(=O)NC(C#N)C#N)C(=O)c2cc(-c3ccc(Cl)cc3)nn21` (stereo not drawn) [Compound I-0231] is at least 1000 nM; for `C[C@H]1CN(Cc2ccc(C#N)cc2)C(=O)c2cc(-c3ccc(Cl)cc3NC(=O)CN(C)C)nn21` [Compound I-0332] it is 10 to 100 nM; for `CC(=O)Nc1cc(C#N)ccc1-c1cc2n(n1)[C@@H](C)CN(C1CCN(CC(F)(F)F)C1=O)C2=O` (stereo partly drawn) [Compound I-0367] it is 10 to 100 nM.
`CCCCCC1CN(CC(=O)NCC(=O)N(C)C)C(=O)c2cc(-c3ccc(Cl)cc3)nn21` (stereo not drawn) [Compound I-0038]: the 50% inhibitory concentration (IC50) fell in the range of 100 to 1000 nM.
The figure for `CCCOCC1CN(CC(=O)NC2(CC#N)CC2)C(=O)c2cc(-c3ccc(Cl)cc3)nn21` (stereo not drawn) [Compound I-0251] is 100 to 1000 nM.
